Test results published in US20150141437A1, “AMIDOPHENOXYPROPANOLAMINES” (MEDIZINISCHE UNIVERSITÄT WIEN, priority 2012, published 2015).

Legend:
[1] = system: P. falciparum K1 (CQ-resistant); experiment: [3H]-hypoxanthine incorporation assay, K1 strain; assay type: cell-based; conditions: Plasmodium falciparum, values marked with asterisk: [3H]-hypoxanthine assay, read-out: IC50 growth inhibition K1 (*)
[2] = system: P. falciparum NF54 (CQ sensitive); experiment: [3H]-hypoxanthine incorporation assay, NF54 strain; assay type: cell-based; conditions: Plasmodium falciparum, values marked with asterisk: [3H]-hypoxanthine assay, read-out: IC50 growth inhibition NF54*

| SMILES | IC50 [1] [nM] | IC50 [2] [nM] |
| --- | --- | --- |
| O=C(Nc1ccc(F)cc1)c1ccccc1OCC(O)CNC12CC3CC(CC(C3)C1)C2 (stereo not shown) [Compound I-3, 2-[3-(Adamantan-1-ylamino)-2-hydroxy-propoxy]-N-(4-fluoro-phenyl)-benzamide] | 11 | 51 |
| O=C(Nc1ccc(F)cc1)c1ccccc1OCC(O)CN1CCN(C23CC4CC(CC(C4)C2)C3)CC1 (stereo not shown) [Compound I-5, 2-[3-(4-Adamantan-1-yl-piperazin-1-yl)-2-hydroxy-propoxy]-N-(4-fluoro-phenyl)-benzamide] | 12 | 59 |
| CC(C)CCNC(=O)c1ccccc1OCC(O)CNCC12CC3CC(CC(C3)C1)C2 (stereo not shown) [Compound I-24, 2-{3-[(Adamantan-1-ylmethyl)-amino]-2-hydroxy-propoxy}-N-(3-methyl-butyl)-benzamide] | 36 | 134 |
| O=C(NCc1ccc(C(F)(F)F)cc1)c1ccccc1OCC(O)CNCC12CC3CC(CC(C3)C1)C2 (stereo not shown) [Compound I-30, 2-{3-[(Adamantan-1-ylmethyl)-amino]-2-hydroxy-propoxy}-N-(4-trifluoromethyl-benzyl)-benzamide] | 18 | 57 |
| O=C(NCCc1ccccc1)c1ccccc1OCC(O)CNCC12CC3CC(CC(C3)C1)C2 (stereo not shown) [Compound I-31, 2-{3-[(Adamantan-1-ylmethyl)-amino]-2-hydroxy-propoxy}-N-phenethyl-benzamide] | 30 | 101 |
| O=C(NCCCc1ccccc1)c1ccccc1OCC(O)CNCC12CC3CC(CC(C3)C1)C2 (stereo not shown) [Compound I-32, 2-{3-[(Adamantan-1-ylmethyl)-amino]-2-hydroxy-propoxy}-N-(3-phenyl-propyl)-benzamide] | 52 | 148 |
| CC(NCC(O)COc1ccc(Cl)cc1C(=O)NCc1cccc2ccccc12)C12CC3CC(CC(C3)C1)C2 (stereo not shown) [Compound I-35, 2-[3-(1-Adamantan-1-yl-ethylamino)-2-hydroxy-propoxy]-5-chloro-N-naphthalen-1-ylmethyl-benzamide] | 4 | 14 |
| C#CCOc1ccc(OCC(O)CNCc2ccc(C3(C(F)(F)F)N=N3)cc2)c(C(=O)Nc2ccc(F)cc2)c1 (stereo not shown) [Compound I-45, N-(4-Fluoro-phenyl)-2-{2-hydroxy-3-[4-(3-trifluoromethyl-3H-diazirin-3-yl)-benzylamino]-propoxy}-5-prop-2-ynyloxy-benzamide] | 542 | 1860 |
| O=C(Nc1ccc(F)cc1)c1ccccc1OCC(O)CN1CCC(c2ccccc2)CC1 (stereo not shown) [Compound I-46, N-(4-Fluoro-phenyl)-2-[2-hydroxy-3-(4-phenyl-piperidin-1-yl)-propoxy]-benzamide] | 9 | 26 |
| CCCCNCC(O)COc1ccccc1C(=O)NCCC(C)C (stereo not shown) [Compound I-56, 2-(3-Butylamino-2-hydroxy-propoxy)-N-(3-methyl-butyl)-benzamide] | 827 | 2750 |
| CC(C)CCNCC(O)COc1ccccc1C(=O)NCCC(C)C (stereo not shown) [Compound I-58, 2-[2-Hydroxy-3-(3-methyl-butylamino)-propoxy]-N-(3-methyl-butyl)-benzamide] | 467 | 1690 |
| CC(C)CCNC(=O)c1ccccc1OCC(O)CNCc1ccc(C(F)(F)F)cc1 (stereo not shown) [Compound I-60, 2-[2-Hydroxy-3-(4-trifluoromethyl-benzylamino)-propoxy]-N-(3-methyl-butyl)-benzamide] | 371 | 1360 |
| C=CCNCC(O)COc1ccccc1C(=O)Nc1ccccc1CC=C (stereo not shown) [Compound I-65, 2-(3-Allylamino-2-hydroxy-propoxy)-N-(2-allyl-phenyl)-benzamide] | 488 | 2550 |
| O=C(Nc1ccc(F)cc1)c1cc(Cl)ccc1OCC(O)CNCC12CC3CC(CC(C3)C1)C2 (stereo not shown) [Compound I-66, 2-{3-[(Adamantan-1-ylmethyl)-amino]-2-hydroxy-pro-poxy}-5-chloro-N-(4-fluoro-phenyl)-benzamide] | 0.6 | 2.4 |
| O=C(Nc1cccc(C(F)(F)F)c1)c1ccccc1OCC(O)CN1CCC(c2ccccc2)CC1 (stereo not shown) [Compound I-67, 2-[2-Hydroxy-3-(4-phenyl-piperidin-1-yl)-propoxy]-N-(3-trifluoromethyl-phenyl)-benzamide] | 2.2 | 8.8 |
| O=C(Nc1cccc(C(F)(F)F)c1)c1ccccc1OCC(O)CN1CCC(Cc2ccccc2)CC1 (stereo not shown) [Compound I-68, 2-[3-(4-Benzyl-piperidin-1-yl)-2-hydroxy-propoxy]-N-(3-trifluoromethyl-phenyl)-benzamide] | 2.3 | 8.6 |
| O=C(Nc1ccc(Br)cc1)c1ccccc1OCC(O)CNCC12CC3CC(CC(C3)C1)C2 (stereo not shown) [Compound I-74, 2-{3-[(Adamantan-1-ylmethyl)-amino]-2-hydroxy-propoxy}-N-(4-bromo-phenyl)-benzamide] | 1.2 | 4.8 |

More lines, in order of falling IC50 [1], values ahead:

| IC50 [1] [nM] | IC50 [2] [nM] | SMILES |
| --- | --- | --- |
| 921 | 1500 | O=C(Nc1cccc(C(F)(F)F)c1)c1ccccc1OCC(O)CNC12CC3CC(CC(O)(C3)C1)C2 (stereo not shown) [Compound I-70, 2-[2-Hydroxy-3-(3-hydroxy-adamantan-1-ylamino)-propoxy]-N-(3-trifluoromethyl-phenyl)-benzamide] |
| 182 | 670 | CN(CC(O)COc1ccccc1C(=O)NCc1ccccc1)CC12CC3CC(CC(C3)C1)C2 (stereo not shown) [Compound I-36, 2-[3-(Adamantan-1-ylmethyl-methyl-amino)-2-hydroxy-propoxy]-N-benzyl-benzamide] |
| 76 | 333 | CCCCN(CCCC)CC(O)COc1ccccc1C(=O)NCCC(C)C (stereo not shown) [Compound I-57, 2-(3-Dibutylamino-2-hydroxy-propoxy)-N-(3-methyl-butyl)-benzamide] |
| 28 | 119 | CN(CC(O)COc1ccccc1C(=O)NCc1ccc(C2(C(F)(F)F)N=N2)cc1)C1C2CC3CC(C2)CC1C3 (stereo not shown) [Compound I-43, 2-[3-(Adamantan-2-yl-methyl-amino)-2-hydroxy-propoxy]-N-[4-(3-trifluoromethyl-3H-diazirin-3-yl)-benzyl]-benzamide] |
| 26 | 96 | O=C(NCCc1ccccc1)c1cc(Cl)ccc1OCC(O)CNC1C2CC3CC(C2)CC1C3 (stereo not shown) [Compound I-10, 2-[3-(Adamantan-2-ylamino)-2-hydroxy-propoxy]-5-chloro-N-phenethyl-benzamide] |
| 21 | 73 | C=CCc1ccccc1NC(=O)c1ccccc1OCC(O)CNCC12CC3CC(CC(C3)C1)C2 (stereo not shown) [Compound I-73, 2-{3-[(Adamantan-1-ylmethyl)-amino]-2-hydroxy-propoxy}-N-(2-allyl-phenyl)-benzamide] |
| 18 | 74 | CC(C)CCNC(=O)c1ccccc1OCC(O)CNC(C)C12CC3CC(CC(C3)C1)C2 (stereo not shown) [Compound I-25, 2-[3-(1-Adamantan-1-yl-ethylamino)-2-hydroxy-propoxy]-N-(3-methyl-butyl)-benzamide] |
| 16 | 63 | CN(CC(O)COc1ccccc1C(=O)Nc1ccc(F)cc1)CC12CC3CC(CC(C3)C1)C2 (stereo not shown) [Compound I-37, 2-[3-(Adamantan-1-ylmethyl-methyl-amino)-2-hydroxy-propoxy]-N-(4-fluoro-phenyl)-benzamide] |
| 8 | 38 | CC12CC3CC(C)(C1)CC(NCC(O)COc1ccccc1C(=O)Nc1ccc(F)cc1)(C3)C2 (stereo not shown) [Compound I-4, 2-[3-(3,5-Dimethyl-adamantan-1-ylamino)-2-hydroxy-propoxy]-N-(4-fluoro-phenyl)-benzamide] |
| 8 | 27 | O=C(NCCc1ccccc1)c1cc(Cl)ccc1OCC(O)CNCC12CC3CC(CC(C3)C1)C2 (stereo not shown) [Compound I-33, 2-{3-[(Adamantan-1-ylmethyl)-amino]-2-hydroxy-propoxy}-5-chloro-N-phenethyl-benzamide] |
| 8 | 24 | O=C(Nc1ccccc1F)c1ccccc1OCC(O)CNCC12CC3CC(CC(C3)C1)C2 (stereo not shown) [Compound I-38, 2-{3-[(Adamantan-1-ylmethyl)-amino]-2-hydroxy-propoxy}-N-(2-fluoro-phenyl)-benzamide] |
| 7 | 16 | O=C(Nc1ccc(F)cc1)c1ccccc1OCC(O)CN1CCC(Cc2ccccc2)CC1 (stereo not shown) [Compound I-47, 2-[3-(4-Benzyl-piperidin-1-yl)-2-hydroxy-propoxy]-N-(4-fluoro-phenyl)-benzamide] |
| 6 | 18 | CCCCN(CCCC)CC(O)COc1ccccc1C(=O)Nc1ccc(F)cc1 (stereo not shown) [Compound I-61, 2-(3-Dibutylamino-2-hydroxy-propoxy)-N-(4-fluoro-phenyl)-benzamide] |
| 5 | 20 | O=C(NCc1cccc2ccccc12)c1cc(Cl)ccc1OCC(O)CNCC12CC3CC(CC(C3)C1)C2 (stereo not shown) [Compound I-34, 2-{3-[(Adamantan-1-ylmethyl)-amino]-2-hydroxy-propoxy}-5-chloro-N-naphthalen-1-ylmethyl-benzamide] |
| 4 | 14 | O=C(Nc1ccc(F)cc1)c1ccccc1OCC(O)CN1CCN(C(c2ccccc2)c2ccccc2)CC1 (stereo not shown) [Compound I-48, 2-[3-(4-Benzhydryl-piperazin-1-yl)-2-hydroxy-propoxy]-N-(4-fluoro-phenyl)-benzamide] |
| 1.8 | 6.2 | O=C(Nc1ccc2ccccc2c1)c1ccccc1OCC(O)CNCC12CC3CC(CC(C3)C1)C2 (stereo not shown) [Compound I-71, 2-{3-[(Adamantan-1-ylmethyl)-amino]-2-hydroxy-propoxy}-N-naphthalen-2-yl-benzamide] |
| 1.3 | 5.5 | O=C(Nc1cccc(C(F)(F)F)c1)c1ccccc1OCC(O)CN1CCN(C(c2ccccc2)c2ccccc2)CC1 (stereo not shown) [Compound I-69, 2-[3-(4-Benzhydryl-piperazin-1-yl)-2-hydroxy-propoxy]-N-(3-trifluoromethyl-phenyl)-benzamide] |
| 1 | 4.2 | O=C(Nc1cccc(C(F)(F)F)c1)c1cc(Cl)ccc1OCC(O)CNCC12CC3CC(CC(C3)C1)C2 (stereo not shown) [Compound I-72, 2-{3-[(Adamantan-1-ylmethyl)-amino]-2-hydroxy-propoxy}-5-chloro-N-(3-trifluoromethyl-phenyl)-benzamide] |
